{
  "source": "paper PMC12622164",
  "about": "“Endothelial CYB5R1 is a Coenzyme Q reductase that suppresses ferroptosis and atherosclerosis” (Research Square, 2025)",
  "target": "T1, recombinant CYB5R1 (Δ1–29) (Homo sapiens, UniProt Q9UHQ9)",
  "T1 construct": "soluble form lacking first 29 residues (membrane anchor); His6-SUMO (Smt3) fusion cleaved by Ulp1; E. coli SoluBL21",
  "T1 sequence (Q9UHQ9 30-305)": "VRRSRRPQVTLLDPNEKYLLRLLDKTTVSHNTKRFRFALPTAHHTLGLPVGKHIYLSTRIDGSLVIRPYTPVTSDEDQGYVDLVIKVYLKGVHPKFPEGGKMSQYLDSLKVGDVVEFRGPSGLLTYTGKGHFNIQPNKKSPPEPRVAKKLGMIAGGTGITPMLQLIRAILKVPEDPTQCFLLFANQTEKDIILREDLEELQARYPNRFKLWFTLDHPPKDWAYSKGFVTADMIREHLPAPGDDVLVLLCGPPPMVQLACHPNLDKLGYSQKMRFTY",
  "assay": "NADH consumption at […] nm",
  "type": "biochemical",
  "settings": "200 uM CoQ0; 500 uM NADH; 100 mM Tris-HCl pH 7.4; no CYB5B",
  "data": [
    {"smiles": "COC1=C(OC)C(=O)C(C)=CC1=O", "note": "[CoQ0, 2,3-dimethoxy-5-methyl-1,4-benzoquinone]", "values": [
      {"measurement": "NADH consumption at 340 nm", "value": "recombinant CYB5R1 readily reduced CoQ0, a water-soluble derivative of CoQ10"}
    ]}
  ]
}
